According to patent US20250296953A1, “3,4-THIAZOLO-STEROIDS AND METHODS OF MAKING AND USING THE SAME” (Arkansas State University - Jonesboro, priority 2018, published 2025):
Like-named read-outs stand apart in the source and are kept apart here.

Key:
[1] = tested on: 60 different human tumor cell lines; conditions: five dose; for CC50: read-out: LC50
glioblastoma (SF-295) = experiment: NCI 60 five dose screen; conditions: SF-295 (CNS Cancer), five dose
gliosarcoma (SF-539) = experiment: NCI 60 five dose screen; conditions: SF-539 (CNS Cancer), five dose

(1S,2R,13R,14S,18S)-7-(2,4-dimethylanilino)-2,18-dimethyl-6-thia-8-azapentacyclo[11.7.0.02,10.05,9.014,18]icosa-5(9),7,10-trien-17-one [IIa.14]
GI50 ([1]; SF-268 (CNS Cancer)): 2.77 µM | GI50 ([1]; SK-MEL-2 (Melanoma)): 2.19 µM | TGI ([1]; SK-MEL-2 (Melanoma)): 4.74E−6 | GI50 ([1]; SK-MEL-5 (Melanoma)): 1.86 µM | TGI ([1]; SK-MEL-5 (Melanoma)): 3.73E−6 | GI50 ([1]; SK-MEL-28 (Melanoma)): 2.31 µM | TGI ([1]; SK-MEL-28 (Melanoma)): 6.08E−6 | GI50 ([1]; SK-OV-3 (Ovarian Cancer)): 9.85 µM | TGI ([1]; SK-OV-3 (Ovarian Cancer)): >1.00E−4 | GI50 ([1]; SN12C (Renal Cancer)): 2.17 µM | TGI ([1]; SN12C (Renal Cancer)): 5.06E−6 | GI50 ([1]; SNB-19 (CNS Cancer)): 2.12 µM | TGI ([1]; SNB-19 (CNS Cancer)): 5.09E−6 | GI50 ([1]; SNB-75 (CNS Cancer)): 2.19 µM | TGI ([1]; SNB-75 (CNS Cancer)): 9.75E−5 | GI50 ([1]; SW-620 (Colon Cancer)): 2.7 µM | GI50 ([1]; T-47D (Breast Cancer)): 2.89 µM | TGI ([1]; T-47D (Breast Cancer)): >1.00E−4 | GI50 ([1]; TK-10 (Renal Cancer)): 2.46 µM | TGI ([1]; TK-10 (Renal Cancer)): 6.70E−6 | TGI ([1]; U251 (CNS Cancer)): 3.21E−6 | GI50 ([1]; UACC-62 (Melanoma)): 1.72 µM | TGI ([1]; UACC-62 (Melanoma)): 3.94E−6 | GI50 ([1]; UACC-257 (Melanoma)): 3.7 µM | TGI ([1]; UACC-257 (Melanoma)): >1.00E−4 | GI50 ([1]; UO-31 (Renal Cancer)): 1.34 µM | TGI ([1]; UO-31 (Renal Cancer)): 2.86E−6 | CC50 ([1]; 786-0 (Renal Cancer)): 5.84 µM | CC50 ([1]; A498 (Renal Cancer)): > 100 µM | CC50 ([1]; A549/ATCC (Non-small Cell Lung Cancer)): > 100 µM | CC50 ([1]; BT-549 (Breast Cancer)): 5.8 µM | CC50 ([1]; CAKI-1 (Renal Cancer)): > 100 µM | CC50 ([1]; CCRF-CEM (Leukemia)): > 100 µM | CC50 ([1]; COLO 205 (Colon Cancer)): > 100 µM | CC50 ([1]; DU-145 (Prostate Cancer)): > 100 µM | CC50 ([1]; EKVX (Non-small Cell Lung Cancer)): > 100 µM | CC50 ([1]; HCT-15 (Colon Cancer)): > 100 µM | CC50 ([1]; HCT-116 (Colon Cancer)): 5.46 µM | CC50 ([1]; HL-60(TB) (Leukemia)): > 100 µM | CC50 ([1]; HOP-62 (Non-small Cell Lung Cancer)): > 100 µM | CC50 ([1]; HOP-92 (Non-small Cell Lung Cancer)): 8.68 µM | CC50 ([1]; HT29 (Colon Cancer)): > 100 µM | CC50 ([1]; IGROV1 (Ovarian Cancer)): > 100 µM | CC50 ([1]; K-562 (Leukemia)): > 100 µM | CC50 ([1]; KM12 (Colon Cancer)): ≥ 100 µM | CC50 ([1]; LOX IMVI (Melanoma)): 5.96 µM | CC50 ([1]; MALME-3M (Melanoma)): > 100 µM | CC50 ([1]; MCF7 (Breast Cancer)): > 100 µM | CC50 ([1]; MDA-MB-231/ATCC (Breast Cancer)): > 100 µM | CC50 ([1]; MDA-MB-435 (Melanoma)): > 100 µM | CC50 ([1]; MDA-MB-468 (Breast Cancer)): 8.01 µM | CC50 ([1]; MOLT-4 (Leukemia)): > 100 µM | CC50 ([1]; NCI-H23 (Non-small Cell Lung Cancer)): > 100 µM | CC50 ([1]; NCI-H226 (Non-small Cell Lung Cancer)): > 100 µM | CC50 ([1]; NCI-H460 (Non-small Cell Lung Cancer)): > 100 µM | CC50 ([1]; NCI-H522 (Non-small Cell Lung Cancer)): 6.43 µM | CC50 ([1]; NCI/ADR-RES (Ovarian Cancer)): > 100 µM | CC50 ([1]; OVCAR-3 (Ovarian Cancer)): 38.2 µM | CC50 ([1]; OVCAR-4 (Ovarian Cancer)): > 100 µM | CC50 ([1]; OVCAR-5 (Ovarian Cancer)): > 100 µM | CC50 ([1]; OVCAR-8 (Ovarian Cancer)): > 100 µM | CC50 ([1]; RXF 393 (Renal Cancer)): 6.01 µM | CC50 ([1]; SF-268 (CNS Cancer)): > 100 µM | CC50 ([1]; SK-MEL-2 (Melanoma)): 22.7 µM | CC50 ([1]; SK-MEL-5 (Melanoma)): 7.47 µM | CC50 ([1]; SK-MEL-28 (Melanoma)): > 100 µM | CC50 ([1]; SK-OV-3 (Ovarian Cancer)): > 100 µM | CC50 ([1]; SN12C (Renal Cancer)): > 100 µM | CC50 ([1]; SNB-19 (CNS Cancer)): > 100 µM | CC50 ([1]; SNB-75 (CNS Cancer)): > 100 µM | CC50 ([1]; SW-620 (Colon Cancer)): > 100 µM | CC50 ([1]; T-47D (Breast Cancer)): > 100 µM | CC50 ([1]; TK-10 (Renal Cancer)): > 100 µM | CC50 ([1]; U251 (CNS Cancer)): 6.1 µM | CC50 ([1]; UACC-62 (Melanoma)): 9.02 µM | CC50 ([1]; UACC-257 (Melanoma)): > 100 µM | CC50 ([1]; UO-31 (Renal Cancer)): 6.12 µM | GI50 (glioblastoma (SF-295)): 1.81 µM | TGI (glioblastoma (SF-295)): 4.10E−6 | GI50 (gliosarcoma (SF-539)): 1.62 µM | TGI (gliosarcoma (SF-539)): 3.08E−6 | CC50 (gliosarcoma (SF-539); read-out: LC50): 5.86 µM
